This note sets out measurements from ChEMBL document CHEMBL1201862, “PubChem BioAssay data set” (2004).

Structures are written as SMILES. Activity calls are given as the source filed them.

One may read the IC50 as the point on the concentration scale where inhibition reaches its midpoint. By EC50 is commonly meant the concentration that produces a half-maximal response. By AC50 is commonly meant the concentration at which the activity in the assay is half-maximal. As usually defined, the CC50 is the concentration that lowers cell viability or growth by half.

Experiment [1] addresses T1, Apoptotic protease-activating factor 1 (Homo sapiens, UniProt O14727).
T1 sequence (O14727 whole entry): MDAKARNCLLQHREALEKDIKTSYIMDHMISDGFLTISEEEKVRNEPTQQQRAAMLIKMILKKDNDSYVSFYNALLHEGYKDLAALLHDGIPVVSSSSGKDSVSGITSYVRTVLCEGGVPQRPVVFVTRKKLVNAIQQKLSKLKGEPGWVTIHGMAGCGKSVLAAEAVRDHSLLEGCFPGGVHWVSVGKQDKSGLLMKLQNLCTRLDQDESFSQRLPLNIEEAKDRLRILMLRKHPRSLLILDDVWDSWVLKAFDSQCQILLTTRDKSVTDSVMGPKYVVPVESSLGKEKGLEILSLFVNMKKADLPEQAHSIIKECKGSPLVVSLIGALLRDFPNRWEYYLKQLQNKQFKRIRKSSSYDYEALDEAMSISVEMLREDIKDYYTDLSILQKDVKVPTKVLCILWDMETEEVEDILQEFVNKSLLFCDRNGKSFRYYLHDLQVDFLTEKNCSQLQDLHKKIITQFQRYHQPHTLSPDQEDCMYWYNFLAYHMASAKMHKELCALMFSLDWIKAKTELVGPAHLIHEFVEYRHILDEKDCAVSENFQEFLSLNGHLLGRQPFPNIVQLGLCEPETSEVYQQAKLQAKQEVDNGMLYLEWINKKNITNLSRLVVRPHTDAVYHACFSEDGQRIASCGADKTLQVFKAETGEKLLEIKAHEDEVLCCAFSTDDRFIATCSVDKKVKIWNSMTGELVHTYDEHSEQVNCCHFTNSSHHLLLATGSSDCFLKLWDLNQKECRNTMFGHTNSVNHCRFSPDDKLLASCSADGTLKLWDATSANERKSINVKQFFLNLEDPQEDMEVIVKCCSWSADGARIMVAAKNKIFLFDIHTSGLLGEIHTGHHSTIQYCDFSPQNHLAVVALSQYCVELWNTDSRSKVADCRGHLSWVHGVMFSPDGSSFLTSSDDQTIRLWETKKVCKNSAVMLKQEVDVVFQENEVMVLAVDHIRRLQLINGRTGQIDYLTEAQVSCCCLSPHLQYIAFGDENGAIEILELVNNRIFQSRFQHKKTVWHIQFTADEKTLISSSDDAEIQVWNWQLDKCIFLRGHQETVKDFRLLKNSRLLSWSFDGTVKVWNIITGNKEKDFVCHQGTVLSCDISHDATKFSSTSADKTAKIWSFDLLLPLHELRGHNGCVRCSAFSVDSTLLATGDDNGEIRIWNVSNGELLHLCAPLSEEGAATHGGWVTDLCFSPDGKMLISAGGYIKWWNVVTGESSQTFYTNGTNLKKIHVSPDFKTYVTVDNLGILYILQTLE
The experiment is classed as functional.

The target of experiment [2] is T2, Voltage-gated N-type calcium channel alpha-1B subunit/Amyloid beta A4 precursor protein-binding family A member 1 (Homo sapiens, UniProt Q00975+Q02410). In kind it is protein assay.
The target in another experiment is T3, Streptokinase A (Streptococcus pyogenes serotype M1, UniProt P10520).
T3 sequence (P10520 whole entry): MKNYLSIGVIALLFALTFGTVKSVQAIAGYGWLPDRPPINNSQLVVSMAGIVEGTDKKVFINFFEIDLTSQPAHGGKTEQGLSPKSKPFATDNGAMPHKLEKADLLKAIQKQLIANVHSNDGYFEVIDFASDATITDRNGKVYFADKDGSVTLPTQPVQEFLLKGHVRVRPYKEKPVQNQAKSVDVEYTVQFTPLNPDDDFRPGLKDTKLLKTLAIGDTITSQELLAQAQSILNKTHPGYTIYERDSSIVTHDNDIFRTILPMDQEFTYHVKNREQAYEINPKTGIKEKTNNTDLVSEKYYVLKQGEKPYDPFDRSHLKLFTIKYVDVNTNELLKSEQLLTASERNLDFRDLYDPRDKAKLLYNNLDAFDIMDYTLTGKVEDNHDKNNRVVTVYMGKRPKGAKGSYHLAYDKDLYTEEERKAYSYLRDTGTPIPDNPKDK
Put plainly: viability-normalized secreted streptokinase activity reduction – plasminogen activation absorbance, OD405, dose response (AID 1914).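 Also: secreted streptokinase activity via plasminogen activation per viability signal from cell pellet.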 The experiment is classed as functional, Streptococcus pyogenes M1 GAS.

Experiment [3] addresses T2, Voltage-gated N-type calcium channel alpha-1B subunit/Amyloid beta A4 precursor protein-binding family A member 1. In kind it is protein assay. This is another data set of the same source.
Another experiment concerns Streptococcus. Nature of the experiment: GAS UMAA2166 growth inhibition – luminescence, BacTiterGlo, counter-screen for streptokinase expression inhibitor project, dose response (AID 1915).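 Also: potency for reduction of bacterial viability or growth.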 In kind it is functional, organism-based. Background: Counterscreens check selectivity or assay interference.
The subject of another experiment is INS1. Nature of the experiment: INS-1E survival protection against cytokine death – cell-based, luminescence, retest, dose response (AID 449756).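 Also: cell death triggered by IL-1 beta plus TNF-alpha plus IFN-gamma mixture; protective hits raise ATP signal compared with cytokine alone wells.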 As to conditions: Rattus norvegicus. In kind it is functional.
In experiment [4] the target is Voltage-dependent T-type calcium channel subunit alpha-1H (Homo sapiens, UniProt O95180). In kind it is functional.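 Also: channel activity triggered by adding a high calcium stimulation buffer.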
For another experiment, the system named is Vero. Put plainly: cells. The experiment is classed as functional. To be noted: Chlorocebus sabaeus.
The test system of experiment [5] is Streptococcus sp. 'group A'. Put plainly: Streptococcus pyogenes SK(-)GAS viability under kanamycin – luminescence, BacTiterGlo, confirmation, counter-screen for streptokinase expression inhibitor project, dose response (AID 1900). In kind it is functional, organism-based.
The next experiment has as its target T4, Estrogen receptor (Homo sapiens, UniProt P03372).
T4 sequence (P03372 whole entry): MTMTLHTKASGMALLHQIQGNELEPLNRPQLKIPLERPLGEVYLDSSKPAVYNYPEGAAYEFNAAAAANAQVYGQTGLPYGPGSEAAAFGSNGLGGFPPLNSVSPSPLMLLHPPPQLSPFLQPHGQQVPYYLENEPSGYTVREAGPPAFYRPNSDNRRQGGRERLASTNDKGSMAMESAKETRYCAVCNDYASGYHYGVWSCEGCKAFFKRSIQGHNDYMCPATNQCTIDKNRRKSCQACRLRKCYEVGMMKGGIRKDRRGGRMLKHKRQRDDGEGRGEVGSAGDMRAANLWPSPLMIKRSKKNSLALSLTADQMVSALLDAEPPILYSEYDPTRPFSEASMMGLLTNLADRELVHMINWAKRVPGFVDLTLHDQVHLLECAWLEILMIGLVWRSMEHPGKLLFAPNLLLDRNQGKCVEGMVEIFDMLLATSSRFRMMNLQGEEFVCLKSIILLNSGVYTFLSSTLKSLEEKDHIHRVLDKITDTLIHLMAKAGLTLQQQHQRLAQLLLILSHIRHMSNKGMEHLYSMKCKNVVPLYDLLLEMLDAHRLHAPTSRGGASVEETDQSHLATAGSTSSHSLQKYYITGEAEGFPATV

Another experiment has as its system HeLa. Nature of the experiment: ATP-based viability loss in HeLa cells – cell-based, CellTiter-Glo luminescence, cherry-pick samples, cytotoxicity control for MITF activator project, dose response (AID 540259). As to conditions: Homo sapiens. The experiment is classed as functional. (In ATP-based viability assays light output follows the ATP content of the culture.)

Experiment [6] deals with T5, Zinc finger protein mex-5 (Caenorhabditis elegans, UniProt Q9XUB2).
T5 sequence (Q9XUB2 whole entry): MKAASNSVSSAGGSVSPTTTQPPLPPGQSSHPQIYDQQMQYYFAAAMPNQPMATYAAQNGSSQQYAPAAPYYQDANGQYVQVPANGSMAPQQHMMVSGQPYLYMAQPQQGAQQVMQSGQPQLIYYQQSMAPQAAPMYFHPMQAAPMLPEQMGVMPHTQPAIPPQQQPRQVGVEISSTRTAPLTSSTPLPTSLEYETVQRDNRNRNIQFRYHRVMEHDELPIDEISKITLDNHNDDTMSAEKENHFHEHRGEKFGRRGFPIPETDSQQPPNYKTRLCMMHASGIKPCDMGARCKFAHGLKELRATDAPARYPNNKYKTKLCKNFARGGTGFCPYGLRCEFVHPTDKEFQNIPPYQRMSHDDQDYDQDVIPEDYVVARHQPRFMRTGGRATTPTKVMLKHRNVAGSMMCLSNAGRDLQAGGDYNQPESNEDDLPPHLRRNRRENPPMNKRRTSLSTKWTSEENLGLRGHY
Put plainly: potency of MEX-5 RNA-binding blockers – biochemical, C. elegans, fluorescence polarization, dose response (AID 1960). (In fluorescence polarisation assays a small probe gives low polarisation when free and higher when bound to something large.)

In experiment [7] the target is T6, RNA-binding protein pos-1 (Caenorhabditis elegans, UniProt G5EF15).
T6 sequence (G5EF15 whole entry): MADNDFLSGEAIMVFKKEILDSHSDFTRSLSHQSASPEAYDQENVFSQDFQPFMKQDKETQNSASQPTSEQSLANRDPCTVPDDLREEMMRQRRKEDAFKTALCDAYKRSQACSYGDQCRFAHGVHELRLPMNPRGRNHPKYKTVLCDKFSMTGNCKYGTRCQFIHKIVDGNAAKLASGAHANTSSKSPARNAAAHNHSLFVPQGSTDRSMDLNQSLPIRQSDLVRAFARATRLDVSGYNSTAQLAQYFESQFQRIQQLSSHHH
Put plainly: disruptors of C. elegans POS-1 RNA interaction – biochemical, fluorescence polarization, dose response (AID 1964).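 Also: purified POS-1 fused to maltose binding protein made in E. coli; potency of compounds blocking POS-1 binding to fluorescent RNA.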

The target in experiment [8] is T7, Estrogen receptor beta (Homo sapiens, UniProt Q92731). Put plainly: blockers of SRC-3 recruitment to ERβ – biochemical, ELISA, streptavidin-HRP readout, orthogonal assay, confirmation (AID 1060).
The target of experiment [9] is T7, Estrogen receptor beta.

T2 sequence (Q00975 whole entry): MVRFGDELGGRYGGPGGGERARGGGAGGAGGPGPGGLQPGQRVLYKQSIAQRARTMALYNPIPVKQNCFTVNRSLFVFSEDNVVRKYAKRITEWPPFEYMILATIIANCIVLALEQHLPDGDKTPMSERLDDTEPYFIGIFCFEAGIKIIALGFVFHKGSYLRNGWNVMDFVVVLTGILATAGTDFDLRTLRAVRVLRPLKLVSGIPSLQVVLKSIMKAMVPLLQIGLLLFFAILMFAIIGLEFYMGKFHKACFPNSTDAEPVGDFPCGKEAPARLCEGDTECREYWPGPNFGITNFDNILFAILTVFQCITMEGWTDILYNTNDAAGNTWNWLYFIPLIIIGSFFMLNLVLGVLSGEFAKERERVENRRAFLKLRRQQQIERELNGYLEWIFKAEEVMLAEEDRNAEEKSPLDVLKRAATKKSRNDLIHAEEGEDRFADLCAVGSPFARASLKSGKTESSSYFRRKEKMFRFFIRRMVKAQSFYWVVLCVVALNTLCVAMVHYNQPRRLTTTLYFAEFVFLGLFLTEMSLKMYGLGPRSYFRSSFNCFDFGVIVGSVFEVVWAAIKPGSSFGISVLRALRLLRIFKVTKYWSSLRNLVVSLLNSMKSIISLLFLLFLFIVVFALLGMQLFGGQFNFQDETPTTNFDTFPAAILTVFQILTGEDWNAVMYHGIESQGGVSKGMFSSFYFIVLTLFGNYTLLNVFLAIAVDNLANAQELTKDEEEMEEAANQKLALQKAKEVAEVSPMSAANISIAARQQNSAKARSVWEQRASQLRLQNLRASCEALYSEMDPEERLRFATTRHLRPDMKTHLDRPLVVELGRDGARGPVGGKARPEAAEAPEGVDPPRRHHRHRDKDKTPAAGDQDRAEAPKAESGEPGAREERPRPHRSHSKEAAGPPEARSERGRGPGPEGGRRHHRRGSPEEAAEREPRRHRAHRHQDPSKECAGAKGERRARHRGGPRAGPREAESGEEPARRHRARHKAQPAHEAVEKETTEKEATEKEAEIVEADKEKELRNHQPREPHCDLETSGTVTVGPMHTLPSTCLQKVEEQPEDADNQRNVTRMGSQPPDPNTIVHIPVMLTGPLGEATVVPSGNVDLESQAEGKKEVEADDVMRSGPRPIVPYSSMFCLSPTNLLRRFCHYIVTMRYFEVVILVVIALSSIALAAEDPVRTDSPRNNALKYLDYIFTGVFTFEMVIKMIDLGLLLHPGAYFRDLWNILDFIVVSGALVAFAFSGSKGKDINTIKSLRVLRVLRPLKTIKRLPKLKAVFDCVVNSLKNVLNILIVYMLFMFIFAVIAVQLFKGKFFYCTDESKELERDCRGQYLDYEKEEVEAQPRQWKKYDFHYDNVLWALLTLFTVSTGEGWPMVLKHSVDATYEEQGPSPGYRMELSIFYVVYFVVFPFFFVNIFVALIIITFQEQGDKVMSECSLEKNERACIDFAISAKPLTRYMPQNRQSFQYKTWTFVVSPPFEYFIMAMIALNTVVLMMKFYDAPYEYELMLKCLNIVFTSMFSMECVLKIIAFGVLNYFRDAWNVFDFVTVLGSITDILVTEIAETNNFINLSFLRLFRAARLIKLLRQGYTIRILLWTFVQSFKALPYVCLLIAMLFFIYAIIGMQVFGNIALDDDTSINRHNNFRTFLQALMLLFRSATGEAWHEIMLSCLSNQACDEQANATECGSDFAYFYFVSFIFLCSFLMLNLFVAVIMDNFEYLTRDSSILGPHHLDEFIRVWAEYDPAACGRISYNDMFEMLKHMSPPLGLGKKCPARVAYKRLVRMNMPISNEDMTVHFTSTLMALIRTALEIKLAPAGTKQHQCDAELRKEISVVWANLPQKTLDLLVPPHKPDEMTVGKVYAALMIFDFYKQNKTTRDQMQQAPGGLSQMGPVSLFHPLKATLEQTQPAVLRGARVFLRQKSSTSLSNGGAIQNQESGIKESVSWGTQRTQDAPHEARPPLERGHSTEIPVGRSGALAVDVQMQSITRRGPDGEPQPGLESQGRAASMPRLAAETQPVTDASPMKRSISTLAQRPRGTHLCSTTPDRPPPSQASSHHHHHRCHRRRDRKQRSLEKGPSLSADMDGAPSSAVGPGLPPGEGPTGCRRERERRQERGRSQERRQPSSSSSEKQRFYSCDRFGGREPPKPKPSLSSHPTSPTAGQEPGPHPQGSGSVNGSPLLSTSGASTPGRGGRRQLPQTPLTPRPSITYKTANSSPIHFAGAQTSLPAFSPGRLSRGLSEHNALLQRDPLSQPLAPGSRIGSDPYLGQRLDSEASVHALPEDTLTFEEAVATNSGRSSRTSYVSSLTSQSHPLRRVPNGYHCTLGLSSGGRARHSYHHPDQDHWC
T2 sequence (Q02410 whole entry): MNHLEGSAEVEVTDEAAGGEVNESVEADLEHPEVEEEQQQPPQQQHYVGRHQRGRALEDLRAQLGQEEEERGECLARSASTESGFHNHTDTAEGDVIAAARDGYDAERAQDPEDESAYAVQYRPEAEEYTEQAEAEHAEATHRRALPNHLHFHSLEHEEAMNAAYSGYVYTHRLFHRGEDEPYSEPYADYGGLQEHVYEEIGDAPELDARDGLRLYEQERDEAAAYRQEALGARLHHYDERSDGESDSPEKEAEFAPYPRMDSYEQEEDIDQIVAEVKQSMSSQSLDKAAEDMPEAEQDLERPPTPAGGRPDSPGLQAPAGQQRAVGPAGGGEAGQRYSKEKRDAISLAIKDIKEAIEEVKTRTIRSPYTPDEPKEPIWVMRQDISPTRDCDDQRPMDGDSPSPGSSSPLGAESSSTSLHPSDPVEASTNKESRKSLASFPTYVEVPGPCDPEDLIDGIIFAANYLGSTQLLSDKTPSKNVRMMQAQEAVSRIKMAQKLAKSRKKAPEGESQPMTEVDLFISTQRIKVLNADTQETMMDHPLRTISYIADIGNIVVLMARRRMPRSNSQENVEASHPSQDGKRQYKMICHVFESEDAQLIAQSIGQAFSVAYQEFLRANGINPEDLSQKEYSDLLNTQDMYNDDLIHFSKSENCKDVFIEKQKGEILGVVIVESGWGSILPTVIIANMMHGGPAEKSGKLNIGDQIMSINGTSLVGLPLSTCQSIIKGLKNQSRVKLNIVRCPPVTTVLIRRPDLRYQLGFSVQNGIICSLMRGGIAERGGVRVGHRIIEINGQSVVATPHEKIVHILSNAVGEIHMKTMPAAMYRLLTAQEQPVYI
T7 sequence (Q92731 whole entry): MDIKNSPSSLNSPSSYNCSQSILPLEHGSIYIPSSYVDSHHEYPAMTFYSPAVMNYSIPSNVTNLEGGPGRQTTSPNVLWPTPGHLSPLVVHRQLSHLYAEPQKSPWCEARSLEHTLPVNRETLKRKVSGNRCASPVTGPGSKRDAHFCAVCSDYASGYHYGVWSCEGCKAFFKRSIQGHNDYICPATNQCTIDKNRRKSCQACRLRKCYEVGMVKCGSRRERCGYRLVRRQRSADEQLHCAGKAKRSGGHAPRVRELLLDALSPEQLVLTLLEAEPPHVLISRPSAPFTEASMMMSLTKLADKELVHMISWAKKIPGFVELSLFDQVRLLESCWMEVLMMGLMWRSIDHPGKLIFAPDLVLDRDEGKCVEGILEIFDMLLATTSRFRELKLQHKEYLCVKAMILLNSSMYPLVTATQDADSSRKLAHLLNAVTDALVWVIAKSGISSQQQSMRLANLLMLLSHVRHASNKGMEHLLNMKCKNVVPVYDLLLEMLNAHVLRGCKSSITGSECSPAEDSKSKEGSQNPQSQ

With `COc1ccc(-n2nc(C(=O)NCC(=O)NC3CCCC(C)C3C)c3ccccc3c2=O)c(OC)c1` (stereo not given), the IC50 in experiment [1] is 14.5 µM (active).

Take `CCCCCCc1cc2cc(-c3nnc(-c4ccccc4)o3)c(=O)oc2cc1O`: the IC50 in [2] was > 50 µM (inactive); in [3], 9.32 µM (active); in experiment [1], 11.7 µM (active); against Estrogen receptor, 34.9 µM (not active). Moreover, the EC50 at Streptokinase A was > 150 µM (not active); in the experiment on Streptococcus, 38.7 µM (inconclusive); in experiment [4], 3 µM (active); in experiment [5], 6.12 µM (active). Also, the AC50 in the experiment on INS1 was 7.4 µM (active). Also, the CC50 in the experiment on Vero is 11.3 µM (active).

With `COc1ccc(/C=C/c2ccc3c(Br)ccc(O)c3n2)cc1`, the AC50 in the experiment on HeLa is 35.9 µM (active). In addition, the EC50 in the experiment on Streptococcus is 1.66 µM (active); in [6] it was > 300 µM (not active); in experiment [7], 117 µM (active); in experiment [5], 0.923 µM (active).

`Cc1snc2sc(C(=O)c3ccc(Br)cc3)c(N)c12`: in the experiment on HeLa, the AC50 was 67.4 µM (active). The IC50 on Estrogen receptor beta [8] was 85.7 nM (not active); at Estrogen receptor beta [9], > 50 µM (not active); on Estrogen receptor, 28.2 µM (active).
